Experiment: Stability of XRPD pattern on drying
Assay type: physicochemical
Method: Short term slurries were carried out at two temperatures in 14 solvents. About 25 mg solid was added to a 2 mL vial followed by 0.70 mL of solvent. If all solids dissolved, more solid was added until a slurry was formed within reason. Slurries were stirred at constant temperature for four days (ambient temperature, 21-23° C.; or high temperature, 50° C.). After stirring for four days, solids were allowed to settle and were then recovered for XRPD analysis. XRPD analysis was performed on the wet cake, and if a new pattern was observed, the sample was dried in a vacuum oven at 50° C. for a minimum of 4 hours, then the dried sample was analyzed by XRPD.
Stability on Drying: A sample of Pattern B was prepared on an XRPD sample holder and analysed by XRPD to create a baseline. The disk was then left in a vacuum oven at 50° C. under static vacuum for 3 days. On the third day, the sample was removed from the oven and the “dry” pattern was recorded immediately.
Compound A⋅2MSA (Pattern A) was slurried in EtOH overnight at room temperature (ca. 16 hours). […] The bulk was dried in a vacuum oven at 50° C. under dynamic vacuum for 4.5 hours. The dried solids were removed from the oven and a “dry” XRPD analysis was collected.

XRPD pattern upon drying (solids from short term slurries, vacuum oven at 50° C., minimum of 4 hours, dimesylate): stable upon drying | XRPD pattern after drying (vacuum oven at 50° C. under static vacuum for 3 days): matched Pattern B
SMILES: CS(=O)(=O)O.CS(=O)(=O)O.N#Cc1cccc(-c2ccc3ncc(-c4cc(F)cc(F)c4)c(N4CCC(N)CC4)c3c2)c1O [Pattern B, 3-(4-(4-aminopiperidin-1-yl)-3-(3,5-difluorophenyl)quinolin-6-yl)-2-hydroxybenzonitrile dimesylate]

Reference: US12617767B2, “Crystalline forms of somatostatin modulators” (Crinetics Pharmaceuticals, Inc., priority 2019, dated 2026)
